Laboratory results: BigSolDB 2.1

CC(=O)[C@H]1CC[C@H]2[C@@H]3CCC4=CC(=O)CC[C@]4(C)[C@H]3CC[C@]12C
solubility (mole fraction)
Settings | 278.15 K | 283.15 K | 288.15 K | 293.15 K | 298.15 K | 303.15 K | 308.15 K | 313.15 K | 318.15 K | 323.15 K
in 1,4-dioxane | – | – | 0.0614 | 0.073 | 0.0855 | 0.1 | 0.117 | 0.136 | 0.156 | 0.179
in THF | 0.0598 | 0.0701 | 0.0816 | 0.0943 | 0.109 | 0.125 | 0.143 | 0.163 | 0.185 | 0.209
in acetone | 0.0143 | 0.0187 | 0.0244 | 0.0311 | 0.0397 | 0.0494 | 0.0617 | 0.076 | 0.094 | 0.116
in acetonitrile | 0.00716 | 0.0101 | 0.0131 | 0.0178 | 0.0235 | 0.0305 | 0.0396 | 0.0508 | 0.0646 | 0.0816
in ethanol | 0.00337 | 0.00455 | 0.00623 | 0.00859 | 0.0112 | 0.0146 | 0.0192 | 0.0251 | 0.0319 | 0.0411
in ethyl acetate | 0.0142 | 0.0175 | 0.0215 | 0.0266 | 0.0321 | 0.039 | 0.0471 | 0.0566 | 0.0671 | 0.0802
in isopropanol | 0.00314 | 0.00446 | 0.00615 | 0.00841 | 0.0115 | 0.0153 | 0.0203 | 0.0269 | 0.0349 | 0.0455
in methanol | 0.00232 | 0.00335 | 0.00472 | 0.00676 | 0.0092 | 0.0127 | 0.0173 | 0.0234 | 0.0308 | 0.0412
in n-butanol | 0.00706 | 0.00947 | 0.0127 | 0.0164 | 0.0211 | 0.0268 | 0.0346 | 0.0439 | 0.0551 | 0.0682
in n-heptane | 0.000112 | 0.00018 | 0.000281 | 0.000425 | 0.000617 | 0.000914 | 0.00135 | 0.00198 | 0.00284 | 0.00402
in n-propanol | 0.00527 | 0.0071 | 0.00969 | 0.0131 | 0.0171 | 0.0227 | 0.0294 | 0.0378 | 0.0485 | 0.0614
in toluene | 0.0797 | 0.0907 | 0.102 | 0.115 | 0.13 | 0.146 | 0.162 | 0.182 | 0.203 | 0.225
